# Laboratory results from US12606554B2, “Compounds and pharmaceutical compositions thereof for the treatment of diseases” (ONCO3R Therapeutics BV, priority 2019, dated 2026).
# Tests used:
# [1] = system: LPS triggered IL-10 secretion in monocyte-derived macrophages (MdM); assay: MdM assay: LPS-triggered IL-10 (ELISA); type: cell-based, human; settings: LPS 200 ng/mL, maximal fold change vs LPS only
# Protocol: (§1) SIK inhibition inhibits TNFα and increases IL-10 release in LPS triggered monocyte-derived macrophages (MdM) and dendritic cells (MdDCs) (Clark et al. 2012; Sundberg et al. 2014; Ozanne et al. 2015). This assay evaluates illustrative compounds of the invention for their inhibition of LPS-induced TNFα and LPS triggered IL-10 secretion in monocyte-derived macrophages.
# (§2) PBMCs are isolated from human blood samples (buffycoats). The buffy coat is aseptically transferred into a 50 mL Falcon tube, and diluted ½ in PBS. Falcon tubes are filled with 20 mL Lymphoprep™, on top of which 25 mL of the buffy coat is carefully added, tubes are centrifuged for 35 min at 400 g in temperature controlled centrifuge, without brake, at 25° C. PBMCs are aspirated from the white interface layer between sample and Lymphoprep™. PBMCs are washed five times in PBS. Cells are resuspended in RPMI 1640 complete medium supplemented with 10% FBS, 1% P/S, and cell density is determined using a hematologic analyzer (Sysmex XS-500i). […]
# (§3) The columns are removed from the magnets, and 5 mL of Miltenyi buffer are added to the column to flush out the CD14+ fraction by pushing the plunger into the column. […] The obtained cell pellet is resuspended in 10 mL RPMI w/o FBS, and cell density is determined using a hematologic analyser (Sysmex XS-500i). […]
# [2] = system: LPS triggered IL-10 secretion in monocytes; assay: Monocytes assay: LPS-triggered IL-10 (ELISA); type: cell-based, human; settings: LPS 200 ng/mL, supernatant after 4 h, maximal fold change vs LPS only
# Protocol: as §1, with “monocytes.” for “monocyte-derived macrophages.”
# as §2, §3
# [3] = system: LPS-induced TNFα in monocytes; assay: Monocytes assay: LPS-triggered TNFα (ELISA); type: cell-based; settings: Homo sapiens, Monocyte, LPS 200 ng/mL, supernatant after 4 h
# Protocol: as §1, with “monocytes.” for “monocyte-derived macrophages.”
# PBMCs are isolated from human blood samples (buffycoats). The buffy coat is aseptically transferred into a 50 mL Falcon tube, and diluted ½ in PBS. Falcon tubes are filled with 20 mL Lymphoprep™, on top of which 25 mL of the buffy coat is carefully added, tubes are centrifuged for 35 min at 400 g in temperature controlled centrifuge, without brake, at 25° C. PBMCs are aspirated from the white interface layer between sample and Lymphoprep™. PBMCs are washed five times in PBS. Cells are resuspended in RPMI 1640 complete medium supplemented with 10% FBS, 1% P/S, and cell density is determined using a hematologic analyzer (Sysmex XS-500i).
# PBMCs are centrifuged at 300×g for 10 min and resuspended at a density of 1.0*10^7 cells/80 μL Miltenyi buffer (PBS, pH 7.4, 1% FBS, 2 mM EDTA).
# Starting from this point of the protocol all steps are performed on ice. 20 μL of CD14+ micro-beads are added per 1.0*10^7 cells, the tube is mixed and incubated for 15 min in the fridge at 4° C. Cell suspension volume is adjusted to total volume of 100 mL using Miltenyi buffer, mixed gently and subsequently centrifuged for 10 min at 300×g. Supernatant is discarded and cell pellet is resuspended in 12 mL of Miltenyi buffer.
# Four LS columns are placed in the MACS Separator (magnet) from Miltenyi Biotec, and are prewet by rinsing with 3 mL of MACS buffer per column. Three mL of cell suspension is added onto the column (max 1*10^8 of labelled cells/column), and columns are subsequently washed 3 times with 3 mL of Miltenyi buffer.
# The columns are removed from the magnets, and 5 mL of Miltenyi buffer are added to the column to flush out the CD14+ fraction by pushing the plunger into the column. The flushed fractions are collected in a fresh 50 mL Falcon and volume is adjusted to 30 mL using Miltenyi buffer, cells are centrifuged for 10 min at 300×g. The obtained cell pellet is resuspended in 10 mL RPMI w/o FBS, and cell density is determined using a hematologic analyser (Sysmex XS-500i). 100 000 cells are seeded in 80 μL per well of a 96-well plate in RPMI 1640 medium supplemented with 10% FBS, 1% P/S.
# A compound dilution plate is made in 100% DMSO by 3-fold dilution of 10 mM stock solution. An intermediate dilution plate (10× final concentration) is made by diluting the compound dilution plate 50-fold in RPMI medium.
# 10 μL of the 10× final concentration compound is added to the cells and incubated for 1 h at 37° C. before addition of trigger. […]
SMILES,IL-10 FCmax median [1],IL-10 FCmax median [2],EC50 [3] [µM]
"COc1cc(-c2cnn3cc(OCCN4CCOCC4)ccc23)cc2c1C(=O)N(CC(F)(F)F)CC2 [Cpd 1, 8-methoxy-6-[6-(2-morpholinoethoxy)pyrazolo[1,5-a]pyridin-3-yl]-2-(2,2,2-trifluoroethyl)-3,4-dihydroisoquinolin-1-one]",++ (>1.5-4.5),+++ (>4.5),0.1 to 1
"COc1cc(-c2cnn3cc(OC(C)(C)CO)ccc23)cc(OC(F)F)c1C(=O)N[C@@H]1C[C@@H]1F [Cpd 2, 2-(difluoromethoxy)-N-[(1R,2S)-2-fluorocyclopropyl]-4-[6-(2-hydroxy-1,1-dimethyl-ethoxy)pyrazolo[1,5-a]pyridin-3-yl]-6-methoxy-benzamide]",–,+ (≤1.5),0.1 to 1
"COc1cc(-c2cnn3cc(OC(C)(C)CN4CCOCC4)ccc23)cc(OC(F)F)c1C(=O)N[C@@H]1C[C@@H]1F [Cpd 3, 2-(difluoromethoxy)-4-[6-(1,1-dimethyl-2-morpholino-ethoxy)pyrazolo[1,5-a]pyridin-3-yl]-N-[(1R,2S)-2-fluorocyclopropyl]-6-methoxy-benzamide]",–,–,0.1 to 1
